Experimental findings from US6479502B1, “Hydroxamic acid derivatives as proteinase inhibitors” (British Biotech Pharmaceuticals, priority 1998, dated 2002) are described below.

The target of one assay is collagenase-3 (MMP-13) (Homo sapiens, UniProt P45452). Nature of the assay: Inhibition of collagenase-3 (MMP-13). In kind it is biochemical. As to conditions: statement in words, no value given. The method, then: The potency of compounds of the invention as inhibitors of collagenase may be determined by the procedure of Cawston and Barrett, (Anal. Biochem., 99, 340-345, 1979), whereby a 1mM solution of the compound being tested, or a dilution thereof, is incubated at 37° for 16 hours with collagen and collagenase (buffered with 25mM Hepes, pH 7.5 containing 5mM CaCl2, 0.05% Brij 35 and 0.02% NaN3). The collagen is acetylated ^14C collagen prepared by the method of Cawston and Murphy, (Methods in Enzymology, 80, 711, 1981). The samples are centrifuged to sediment undigested collagen, and an aliquot of the radioactive supernatant removed for assay on a scintillation counter as a measure of hydrolysis. The collagenase activity in the presence of 1mM of the test compound, or a dilution thereof, is compared to activity in a control devoid of inhibitor and the result reported as that of inhibitor concentration effecting 50% inhibition of the collagenase activity (IC50). The potency of compounds of the invention as inhibitors of stromelysin may be determined by the procedure of Cawston et al, (Biochem. J., 195, 159-165, 1981), whereby a 1mM solution of the compound being tested, or a dilution thereof, is incubated at 37° for 16 hours with stromelysin and ^14C acetylate casein (buffered with 25mM Hepes, pH 7.5 containing 5mM CaCl2, 0.05% Brij 35 and 0.02% NaN3). […]

The target of a further assay is T1, gelatinase A (Homo sapiens, UniProt P08253).
T1 construct: endogenous in cells; host or cells: RPMI-7951 cells (endogenous enzyme, purified by gelatin-agarose chromatography)
T1 sequence (P08253 110-660): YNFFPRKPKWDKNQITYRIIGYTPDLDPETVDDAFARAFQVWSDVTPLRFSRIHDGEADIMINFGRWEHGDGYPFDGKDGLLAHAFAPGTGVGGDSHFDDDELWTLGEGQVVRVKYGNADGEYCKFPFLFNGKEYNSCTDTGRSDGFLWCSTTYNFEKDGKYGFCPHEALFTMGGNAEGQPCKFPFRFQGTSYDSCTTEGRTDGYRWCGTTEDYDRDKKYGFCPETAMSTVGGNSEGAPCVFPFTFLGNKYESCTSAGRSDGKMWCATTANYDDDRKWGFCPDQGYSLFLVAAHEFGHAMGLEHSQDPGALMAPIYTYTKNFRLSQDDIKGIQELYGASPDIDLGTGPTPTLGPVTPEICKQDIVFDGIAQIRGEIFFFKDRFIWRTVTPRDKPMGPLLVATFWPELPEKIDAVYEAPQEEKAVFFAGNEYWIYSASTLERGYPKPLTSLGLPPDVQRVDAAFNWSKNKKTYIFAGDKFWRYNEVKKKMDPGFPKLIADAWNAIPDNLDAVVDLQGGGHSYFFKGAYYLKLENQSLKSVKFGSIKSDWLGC
Nature of the assay: Inhibition of gelatinase A (72 kDa gelatinase). In kind it is biochemical. The following applies: statement in words, no value given. The method, then:
The potency of compounds of the invention as inhibitors of 72 kDa gelatinase may be determined by a procedure based on the method of Sellers et. al, Biochem. J., 171, 493-496 (1979). 72 kDa gelatinase, derived from RPMI-7951 cells is purified by gelatin-agarose chromatography. The enzyme is activated by incubation with aminophenyl mercuric acetate and approximately 0.05 units is incubated with 50μg [^14C]-radiolabellet gelatin in an appropriate buffer for 16 hours at 37° C. At the end of the incubation 50μg bovine serum albumin, together with trichloroacetic acid (final concentration 16%) are added to stop the reaction and to precipitate any undegraded substrate. The reaction tubes are placed on ice for 15 minutes before centrifugation at 10,000g for 15 minutes to sediment the precipitated substrate. A 200μl aliquot of the reaction supernatant is removed and the radioactivity determined by liquid scintillation counting. The effect of the inhibitors is determined by reference to a dose response curve. The IC50 (the concentration of inhibitor required to cause a 50% decrease in enzyme activity) is obtained by fitting a curve to the data and computing the concentration of inhibitor required to achieve 50% inhibition of the enzyme. For each IC50 determination, the effect on gelatinase activity of at least 8 concentrations of the inhibitor are examined. […]

As for `O=C(CC(Cc1ccccc1)S(=O)(=O)N1CCC(COc2ccc(F)cc2)CC1)NO` (centres unmarked) [Example 6, 3-[4-(4-Fluoro-phenoxymethyl)-piperidine-1-sulfonyl]-N-hydroxy-4-phenyl-butyramide], on collagenase-3 (MMP-13), the “inhibitor of collagenase-3 (MMP-13)” value is given as “inhibitor of collagenase-3 (MMP-13)”.

On to `O=C(CC(Cc1ccccc1)S(=O)(=O)N1CCC(Cc2ccccc2)CC1)NO` (centres unmarked) [Example 2, 3-(4-Benzyl-piperidine-1-sulfonyl)-N-Hydroxy-4-phenyl-butyramide], for which the “inhibitor of gelatinase A” value against gelatinase A is listed as “inhibitor of gelatinase A”.
